This passage reports pest or weed control and MIC results from patent publication US20150246898A1, “METALLOENZYME INHIBITOR COMPOUNDS” (DOW AGROSCIENCES LLC, priority 2012, published 2015).

SMILES strings stand for the structures. ≈ marks a conversion by molar mass, not a printed value.

The first assay concerns Puccinia recondita tritici = Puccinia triticina (PUCCRT). Put plainly: Fungicidal activity vs. leaf rust on wheat plants (1-day protectant spray). The conditions noted are these: wheat (variety Yuma) sprayed at 50 ppm, inoculated next day, disease severity evaluated 7-9 days later, read-out: Puccinia Rating (% Disease Control @ 50 ppm). In kind it is in vivo. The source says: Each pot contained 3-8 seedlings. These plants were sprayed until wet with the formulated test compounds. The compounds were formulated at 50 ppm in 10 vol. % acetone plus 90 vol. % Triton X water (deionized water 99.99 wt %+0.01 wt % Triton X100), giving a “formulated test compound.” Formulated test compounds were applied to plants using a turn table sprayer fitted with two opposing air atomization nozzles which delivered approximately 1500 L/ha of spray volume. On the following day, the leaves were inoculated with an aqueous spore suspension of Puccinia recondita tritici and the plants were kept in high humidity overnight to permit spores to germinate and infect the leaf. The plants were then transferred to a greenhouse until disease developed on untreated control plants. Disease severity was evaluated 7-9 days later, depending on the speed of disease development. In each case of Table 3, the Puccinia rating scale is as follows: […]
Consider `OC(c1cncnc1)(c1ccc(F)cc1F)C(F)(F)c1ccc(-c2ccc(OC(F)(F)F)cc2)cn1` (racemic) [Example 3, 1-(2,4-difluorophenyl)-2,2-difluoro-1-(pyrimidin-5-yl)-2-(5-(4-(trifluoromethoxy)phenyl)pyridin-2-yl)ethanol], for which the pest or weed control at 50 ppm was under 40%.

Take `N#Cc1ccc(C#Cc2ccc(C(F)(F)C(O)(c3cncnc3)c3ccc(F)cc3F)nc2)cc1` (racemic) [Example 5, 4-((6-(2-(2,4-difluorophenyl)-1,1-difluoro-2-hydroxy-2-(pyrimidin-5-yl)ethyl)pyridin-3-yl)ethynyl)benzonitrile]: the pest or weed control at 50 ppm lay within 80 to 100%.

`CNc1ccc(C#Cc2ccc(C(F)(F)C(O)(c3cncnc3)c3ccc(F)cc3F)nc2)cc1` (racemic) [Example 7, 1-(2,4-difluorophenyl)-2,2-difluoro-2-(5-((4-(methylamino)phenyl)ethynyl)pyridin-2-yl)-1-(pyrimidin-5-yl)ethanol]: the pest or weed control at 50 ppm is under 40%.

In the case of `OC(c1cnccn1)(c1ccc(F)cc1F)C(F)(F)c1ccc(C#Cc2ccc(F)cc2)cn1` (racemic) [Example 25], the pest or weed control at 50 ppm is under 40%.

With `N#Cc1ccc(COc2ccc(C(F)(F)C(O)(c3cncnc3)c3ccc(F)cc3F)nc2)c(F)c1` (racemic) [Example 68], the pest or weed control at 50 ppm fell in the range of 80 to 100%.

For the compound `OC(c1ccc(Cl)cc1)(c1cncnc1)C(F)(F)c1ccc(OCc2ccc(Cl)cc2)cn1` (stereo not shown) [Example 69], the pest or weed control at 50 ppm was under 40%.

In the next assay the test system is Septoria tritici (ATCC 26517). As to the kind of experiment: Minimum Inhibitory Concentration (MIC) vs. Septoria tritici, CLSI-based microdilution. In kind it is cell-based. The conditions noted are these: Zymoseptoria tritici, ATCC26517, 168 h; MIC = 50% reduction in growth of S. tritici, 7 days at 22 °C, RPMI/MOPS, 1% DMSO; read-out: Septoria Rating (MIC). The method, then: Compounds of the present disclosure were assessed for their ability to inhibit the growth of a common strain of the fungal plant pathogen Septoria tritici (ATCC 26517) using a procedure based on a Clinical and Laboratory Standards Institute (CLSI) microdilution assay protocol for filamentous fungi. Stock solutions of the test compounds and standards were prepared in DMSO at 6400 μg/mL. Each stock solution was used to prepare a 2-fold dilution series ranging from 16 to 0.016 μg/mL (total of 11 compound concentrations) in RPMI-1640 (Roswell Park Memorial Institute) medium containing 3-(N-morpholino)propanesulfonic acid (MOPS) buffer and 2% DMSO. A 100 μL aliquot of the dilutions was added to columns 1 (16 μg/mL compound) through 11 (0.016 μg/mL compound) of a 96-well microtiter plate. This format was replicated in a second row of the microtiter plate. Thus, each microtiter plate could include 11 concentrations of four test or control compounds replicated twice. A 100 μL aliquot of RPMI-1640/MOPS/2% DMSO medium was added to column 12 (no compound control) of the microtiter plate. A fresh culture of S. tritici was used to prepare a solution of approximately 5×10^4 colony-forming units per milliliter (cfu/mL) in RPMI/MOPS medium without DMSO. A 100 μL aliquot of this solution was added to all 96 wells in the microtiter plate. […] In each case of Table 3 the Septoria rating scale is as follows: […]
In the case of `OC(c1cncnc1)(c1ccc(F)cc1F)C(F)(F)c1ccc(-c2ccc(OC(F)(F)F)cc2)cn1` (racemic) [Example 3, 1-(2,4-difluorophenyl)-2,2-difluoro-1-(pyrimidin-5-yl)-2-(5-(4-(trifluoromethoxy)phenyl)pyridin-2-yl)ethanol], the minimum inhibitory concentration (MIC) (in general, the lowest concentration found to suppress growth) lay in the range of 0.5 to 1.5 µg/mL (≈ 0.982 to 2.94 µM).

Regarding `N#Cc1ccc(-c2ccc(C(F)(F)C(O)(c3cncnc3)c3ccc(F)cc3F)nc2)cc1` (racemic) [Example 4, 4-(6-(2-(2,4-difluorophenyl)-1,1-difluoro-2-hydroxy-2-(pyrimidin-5-yl)ethyl)pyridin-3-yl)benzonitrile], the MIC was over 4 µg/mL.

For the compound `N#Cc1ccc(C#Cc2ccc(C(F)(F)C(O)(c3cncnc3)c3ccc(F)cc3F)nc2)cc1` (racemic) [Example 5, 4-((6-(2-(2,4-difluorophenyl)-1,1-difluoro-2-hydroxy-2-(pyrimidin-5-yl)ethyl)pyridin-3-yl)ethynyl)benzonitrile], the MIC is at most 0.5 µg/mL.

For the compound `OC(c1cncnc1)(c1ccc(F)cc1F)C(F)(F)c1ccc(C#CCOCC(F)(F)F)cn1` (racemic) [Example 6, 1-(2,4-difluorophenyl)-2,2-difluoro-1-(pyrimidin-5-yl)-2-(5-(3-(2,2,2-trifluoroethoxy)prop-1-ynyl)pyridin-2-yl)ethanol], the MIC is over 4 µg/mL.

Regarding `CNc1ccc(C#Cc2ccc(C(F)(F)C(O)(c3cncnc3)c3ccc(F)cc3F)nc2)cc1` (racemic) [Example 7, 1-(2,4-difluorophenyl)-2,2-difluoro-2-(5-((4-(methylamino)phenyl)ethynyl)pyridin-2-yl)-1-(pyrimidin-5-yl)ethanol], the MIC is at most 0.5 µg/mL.

For the compound `N#Cc1ccc(C#Cc2ccc(C(F)(F)C(O)(c3cncnc3)c3ccc(F)cc3F)nc2)cn1` (racemic) [Example 17], the MIC is 0.5 to 1.5 µg/mL (≈ 1.05 to 3.16 µM).

For `Oc1ccc(C#Cc2ccc(C(F)(F)C(O)(c3cncnc3)c3ccc(F)cc3F)nc2)cc1` (racemic) [Example 19, 4-((6-(2-(2,4-Difluorophenyl)-1,1-difluoro-2-hydroxy-2-(pyrimidin-5-yl)ethyl)pyridin-3-yl)ethynyl)phenol], the MIC was at most 0.5 µg/mL.

Regarding `CSc1ccc(C#Cc2ccc(C(F)(F)C(O)(c3cncnc3)c3ccc(F)cc3F)nc2)cc1` (racemic) [Example 22], the MIC was 1.5 to 4 µg/mL (≈ 3.03 to 8.07 µM).

As for `O/N=C/c1ccc(C#Cc2ccc(C(F)(F)C(O)(c3cncnc3)c3ccc(F)cc3F)nc2)cc1` (racemic) [Example 23], the MIC lay in the range of 1.5 to 4 µg/mL (≈ 3.05 to 8.12 µM).

Turning to `OC(c1cccnn1)(c1ccc(F)cc1F)C(F)(F)c1ccc(C#Cc2ccc(F)cc2)cn1` (racemic) [Example 24], the MIC was over 4 µg/mL.

Turning to `OC(c1c[nH]nn1)(c1ccc(F)cc1F)C(F)(F)c1ccc(C#Cc2ccc(F)cc2)cn1` (racemic) [Example 26], the MIC is over 4 µg/mL.

In the case of `OC(c1cncs1)(c1ccc(F)cc1F)C(F)(F)c1ccc(C#Cc2ccc(F)cc2)cn1` (racemic) [Example 28], the MIC fell in the range of 1.5 to 4 µg/mL (≈ 3.18 to 8.47 µM).

In the case of `OC(c1cnco1)(c1ccc(F)cc1F)C(F)(F)c1ccc(C#Cc2ccc(F)cc2)cn1` (racemic) [Example 29], the MIC was over 4 µg/mL.

Consider `OC(c1cc[nH]n1)(c1ccc(F)cc1F)C(F)(F)c1ccc(C#Cc2ccc(F)cc2)cn1` (racemic) [Example 30], for which the MIC is 1.5 to 4 µg/mL (≈ 3.29 to 8.78 µM).

For the compound `O=Cc1ccc(C#Cc2ccc(C(F)(F)C(O)(c3cncnc3)c3ccc(F)cc3F)nc2)cc1` (racemic) [Example 31], the MIC lay in the range of 0.5 to 1.5 µg/mL (≈ 1.05 to 3.14 µM).

In the case of `N#Cc1ccc(CCc2ccc(C(F)(F)C(O)(c3cncnc3)c3ccc(F)cc3F)nc2)cc1` (racemic) [Example 32], the MIC is at most 0.5 µg/mL.

Regarding `CNc1ccc(CCc2ccc(C(F)(F)C(O)(c3cncnc3)c3ccc(F)cc3F)nc2)cc1` (racemic) [Example 33], the minimum inhibitory concentration (MIC) is at most 0.5 µg/mL.

`OC(c1cncnc1)(c1ccc(F)cc1F)C(F)(F)c1ccc(C#Cc2ccc(NCC(F)(F)F)cc2)cn1` (racemic) [Example 36]: the MIC is at most 0.5 µg/mL.

As for `OC(c1cncnc1)(c1ccc(F)cc1F)C(F)(F)c1ccc(Oc2ccc(Cl)cc2)cn1` (racemic) [Example 40], the MIC was over 4 µg/mL.

Turning to `N#Cc1ccc(C#Cc2ccc(C(F)(F)C(O)(c3ccc(F)cc3)c3cncnc3)nc2)cc1` (racemic) [Example 44], the MIC is over 4 µg/mL.

As for `CCCC(O)(c1cncnc1)C(F)(F)c1ccc(C#Cc2ccc(C#N)cc2)cn1` (racemic) [Example 45], the MIC lay in the range of 1.5 to 4 µg/mL (≈ 3.71 to 9.89 µM).

Consider `CCC(O)(c1cncnc1)C(F)(F)c1ccc(C#Cc2ccc(C#N)cc2)cn1` (racemic) [Example 46], for which the MIC lay in the range of 1.5 to 4 µg/mL (≈ 3.84 to 10.2 µM).

Regarding `COc1ccc(COc2ccc(C(F)(F)C(O)(c3cncnc3)c3ccc(F)cc3F)nc2)cc1` (racemic) [Example 49], the MIC lay in the range of 0.5 to 1.5 µg/mL (≈ 1.03 to 3.09 µM).

For `CC(C)C(O)(c1cncnc1)C(F)(F)c1ccc(OCc2ccc(Cl)cc2F)cn1` (racemic) [Example 50], the MIC fell in the range of 1.5 to 4 µg/mL (≈ 3.43 to 9.14 µM).

`CC(C)C(O)(c1cncnc1)C(F)(F)c1ccc(OCc2ccc(Cl)cc2)cn1` (racemic) [Example 53]: the MIC fell in the range of 0.5 to 1.5 µg/mL (≈ 1.19 to 3.57 µM).

For `OC(c1cncnc1)(c1ccc(F)cc1F)C(F)(F)c1ccc(OCc2ccc(C(F)F)cc2)cn1` (racemic) [Example 54], the MIC is over 4 µg/mL.

Take `N#Cc1ccc(COc2ccc(C(F)(F)C(O)(c3cncnc3)c3ccc(F)cc3F)nc2)cc1` (racemic) [Example 56]: the MIC fell in the range of 0.5 to 1.5 µg/mL (≈ 1.04 to 3.12 µM).

Consider `CC(C)C(O)(c1cncnc1)C(F)(F)c1ccc(OCc2ccc(C#N)cc2)cn1` (racemic) [Example 57], for which the MIC is over 4 µg/mL.

For the compound `O=[N+]([O-])c1ccc(COc2ccc(C(F)(F)C(O)(c3cncnc3)c3ccc(F)cc3F)nc2)cc1` (racemic) [Example 58], the MIC lay within 1.5 to 4 µg/mL (≈ 3 to 7.99 µM).

`OC(c1cncnc1)(c1ccc(F)cc1F)C(F)(F)c1ccc(OCc2cccc(Cl)c2)cn1` (racemic) [Example 59]: the MIC is 0.5 to 1.5 µg/mL (≈ 1.02 to 3.06 µM).

Regarding `CC(C)C(O)(c1cncnc1)C(F)(F)c1ccc(C#Cc2ccc(F)cc2)cn1` (racemic) [Example 63], the MIC lay within 0.5 to 1.5 µg/mL (≈ 1.26 to 3.77 µM).

Regarding `N#Cc1cccc(C#Cc2ccc(C(F)(F)C(O)(c3ccc(Cl)cc3)c3cncnc3)nc2)c1` (racemic) [Example 66], the MIC was in the range of 0.5 to 1.5 µg/mL (≈ 1.06 to 3.17 µM).

Turning to `OC(c1cncnc1)(C(F)(F)F)C(F)(F)c1ccc(-c2ccc(Cl)cc2)cn1` (racemic) [Example 71, 1-(5-(4-Chlorophenyl)pyridin-2-yl)-1,1,3,3,3-pentafluoro-2-(pyrimidin-5-yl)propan-2-ol], the MIC is at most 0.5 µg/mL.

Take `OC(c1ccc(Cl)cc1)(c1cncnc1)C(F)(F)c1ccc(Oc2cccc(Cl)c2)cn1` (stereo not shown) [Example 61]: the MIC was 1.5 to 4 µg/mL (≈ 3.16 to 8.43 µM).
